Experimental data reported in the CheMixHub viscosity set.
± gives the uncertainty stated by the source.

Assay: xn = mol fraction of the nth substance listed

C1CCCCCCC1 + Cc1ccccc1
303 K, 101 kPa
Conditions | viscosity [mPa·s]
x2 = 0.0411 | 1.726 ± 0.013
x2 = 0.1605 | 1.259 ± 0.0098
x2 = 0.3113 | 1.024 ± 0.0081
x2 = 0.4874 | 0.8342 ± 0.0067
x2 = 0.6192 | 0.7126 ± 0.0058
x2 = 0.7463 | 0.627 ± 0.0052
x2 = 0.8614 | 0.5716 ± 0.0048
x2 = 0.9174 | 0.5484 ± 0.0046
x2 = 0.973 | 0.5311 ± 0.0045

CCCCCCCO + Cc1ccccc1
viscosity [mPa·s], 101 kPa
Conditions | 298.15 K | 308.15 K
x2 = 0.0525 | 4.969 ± 0.03 | 3.846 ± 0.023
x2 = 0.1014 | 4.357 ± 0.026 | 3.429 ± 0.021
x2 = 0.1518 | 3.776 ± 0.023 | 3.068 ± 0.019
x2 = 0.1859 | 3.412 ± 0.021 | 2.862 ± 0.018
x2 = 0.2489 | 2.873 ± 0.018 | 2.456 ± 0.015
x2 = 0.3011 | 2.473 ± 0.015 | 2.202 ± 0.014
x2 = 0.3504 | 2.153 ± 0.013 | 1.942 ± 0.012
x2 = 0.4006 | 1.843 ± 0.012 | 1.719 ± 0.011
x2 = 0.4494 | 1.63 ± 0.01 | 1.542 ± 0.01
x2 = 0.5003 | 1.435 ± 0.009 | 1.357 ± 0.009
x2 = 0.5486 | 1.245 ± 0.008 | 1.223 ± 0.008
x2 = 0.5903 | 1.12 ± 0.007 | 1.094 ± 0.007
x2 = 0.6493 | 0.965 ± 0.007 | 0.967 ± 0.007
x2 = 0.7011 | 0.893 ± 0.006 | 0.874 ± 0.006
x2 = 0.752 | 0.768 ± 0.006 | 0.766 ± 0.006
x2 = 0.8041 | 0.676 ± 0.005 | 0.664 ± 0.005
x2 = 0.8495 | 0.645 ± 0.005 | 0.624 ± 0.005
x2 = 0.9009 | 0.6 ± 0.005 | 0.575 ± 0.005
x2 = 0.9487 | 0.572 ± 0.005 | 0.527 ± 0.005

CCOC(=O)C(C)O (configuration not stated) + Cc1ccccc1
101 kPa
Conditions | viscosity [mPa·s]
298.15 K, x1 = 0.7999 | 1.695 ± 0.018
303.15 K, x1 = 0.3 | 0.7345 ± 0.0085
303.15 K, x1 = 0.7 | 1.295 ± 0.014
313.15 K, x1 = 0.4 | 0.7225 ± 0.0084

CS(C)=O + Cc1ccccc1
Conditions | viscosity [mPa·s]
298.15 K, 101 kPa, x1 = 0.1 | 0.606 ± 0.006
298.15 K, 101 kPa, x1 = 0.2 | 0.675 ± 0.007
298.15 K, 101 kPa, x1 = 0.3 | 0.761 ± 0.008
298.15 K, 101 kPa, x1 = 0.4 | 0.867 ± 0.009
298.15 K, 101 kPa, x1 = 0.5 | 0.99 ± 0.01
298.15 K, 101 kPa, x1 = 0.6 | 1.122 ± 0.011
298.15 K, 101 kPa, x1 = 0.7 | 1.268 ± 0.012
298.15 K, 101 kPa, x1 = 0.8 | 1.452 ± 0.014
298.15 K, 101 kPa, x1 = 0.9 | 1.679 ± 0.016
298.15 K, 101.3 kPa, x1 = 0.1025 | 0.609 ± 0.017
298.15 K, 101.3 kPa, x1 = 0.2029 | 0.671 ± 0.018
298.15 K, 101.3 kPa, x1 = 0.3843 | 0.838 ± 0.022
298.15 K, 101.3 kPa, x1 = 0.504 | 0.964 ± 0.024
298.15 K, 101.3 kPa, x1 = 0.6035 | 1.095 ± 0.027
298.15 K, 101.3 kPa, x1 = 0.7049 | 1.25 ± 0.031
298.15 K, 101.3 kPa, x1 = 0.7997 | 1.43 ± 0.035
298.15 K, 101.3 kPa, x1 = 0.9017 | 1.686 ± 0.04
302.4 K, 101 kPa, x1 = 0.0908 | 1.087
302.4 K, 101 kPa, x1 = 0.2568 | 1.399
302.4 K, 101 kPa, x1 = 0.4732 | 1.615
302.4 K, 101 kPa, x1 = 0.5996 | 2.242
302.4 K, 101 kPa, x1 = 0.7139 | 2.506
302.4 K, 101 kPa, x1 = 0.8665 | 3.234
303.15 K, 101.3 kPa, x1 = 0.1025 | 0.574 ± 0.016
303.15 K, 101.3 kPa, x1 = 0.2029 | 0.636 ± 0.017
303.15 K, 101.3 kPa, x1 = 0.3843 | 0.777 ± 0.02
303.15 K, 101.3 kPa, x1 = 0.504 | 0.894 ± 0.023
303.15 K, 101.3 kPa, x1 = 0.6035 | 1.01 ± 0.025
303.15 K, 101.3 kPa, x1 = 0.7049 | 1.149 ± 0.028
303.15 K, 101.3 kPa, x1 = 0.7997 | 1.309 ± 0.032
303.15 K, 101.3 kPa, x1 = 0.9017 | 1.526 ± 0.037
308.15 K, 101 kPa, x1 = 0.1 | 0.537 ± 0.006
308.15 K, 101 kPa, x1 = 0.2 | 0.594 ± 0.006
308.15 K, 101 kPa, x1 = 0.3 | 0.664 ± 0.007
308.15 K, 101 kPa, x1 = 0.4 | 0.741 ± 0.008
308.15 K, 101 kPa, x1 = 0.5 | 0.833 ± 0.008
308.15 K, 101 kPa, x1 = 0.6 | 0.937 ± 0.009
308.15 K, 101 kPa, x1 = 0.7 | 1.065 ± 0.011
308.15 K, 101 kPa, x1 = 0.8 | 1.217 ± 0.012
308.15 K, 101 kPa, x1 = 0.9 | 1.407 ± 0.014
308.15 K, 101.3 kPa, x1 = 0.1025 | 0.54 ± 0.015
308.15 K, 101.3 kPa, x1 = 0.2029 | 0.598 ± 0.016
308.15 K, 101.3 kPa, x1 = 0.3843 | 0.727 ± 0.019
308.15 K, 101.3 kPa, x1 = 0.504 | 0.833 ± 0.021
308.15 K, 101.3 kPa, x1 = 0.6035 | 0.963 ± 0.024
308.15 K, 101.3 kPa, x1 = 0.7049 | 1.062 ± 0.027
308.15 K, 101.3 kPa, x1 = 0.7997 | 1.204 ± 0.03
308.15 K, 101.3 kPa, x1 = 0.9017 | 1.398 ± 0.034
318.15 K, 101 kPa, x1 = 0.1 | 0.482 ± 0.005
318.15 K, 101 kPa, x1 = 0.2 | 0.53 ± 0.006
318.15 K, 101 kPa, x1 = 0.3 | 0.587 ± 0.006
318.15 K, 101 kPa, x1 = 0.4 | 0.654 ± 0.007
318.15 K, 101 kPa, x1 = 0.5 | 0.731 ± 0.007
318.15 K, 101 kPa, x1 = 0.6 | 0.817 ± 0.008
318.15 K, 101 kPa, x1 = 0.7 | 0.921 ± 0.009
318.15 K, 101 kPa, x1 = 0.8 | 1.047 ± 0.01
318.15 K, 101 kPa, x1 = 0.9 | 1.201 ± 0.012

OC1CCCCC1 + Cc1ccccc1Cl
303.15 K, 101 kPa
Conditions | viscosity [mPa·s]
x1 = 0.1104 | 4.861 ± 0.58
x1 = 0.2183 | 8.854 ± 1.1
x1 = 0.3237 | 12.93 ± 1.6
x1 = 0.4268 | 17.06 ± 2.1
x1 = 0.5276 | 21.22 ± 2.6
x1 = 0.6262 | 25.36 ± 3.1
x1 = 0.7227 | 29.4 ± 3.6
x1 = 0.8171 | 33.34 ± 4
x1 = 0.9095 | 37.22 ± 4.5

C1CCCCCCC1 + Clc1ccccc1
viscosity [mPa·s], 101 kPa
Conditions | x1 = 0.1213 | x1 = 0.2071 | x1 = 0.3009 | x1 = 0.3941 | x1 = 0.5112 | x1 = 0.5915 | x1 = 0.6905 | x1 = 0.799 | x1 = 0.9125
308.15 K | 0.7246 ± 0.024 | 0.7681 ± 0.026 | 0.8486 ± 0.028 | 0.9205 ± 0.03 | 1.014 ± 0.032 | 1.079 ± 0.034 | 1.159 ± 0.037 | 1.297 ± 0.04 | 1.544 ± 0.047
313.15 K | 0.6673 ± 0.023 | 0.7011 ± 0.024 | 0.7511 ± 0.025 | 0.8196 ± 0.027 | 0.9056 ± 0.03 | 0.951 ± 0.031 | 1.042 ± 0.033 | 1.197 ± 0.037 | 1.402 ± 0.043

CCN(CC)CCO + NCCO
Conditions | viscosity [mPa·s]
293.15 K, 101 kPa, x2 = 0.9 | 22.75 ± 4.6

CC(=O)O.NCCO + O
viscosity [mPa·s], 101 kPa
Conditions | x1 = 0.0075 | x1 = 0.0163 | x2 = 0.8718 | x2 = 0.9099 | x2 = 0.9403 | x2 = 0.9641 | x2 = 0.9743
293.15 K | 1.308 ± 0.064 | 1.512 ± 0.073 | 7.458 ± 0.39 | 4.47 ± 0.27 | 2.88 ± 0.16 | 2.01 ± 0.1 | 1.71 ± 0.087
298.15 K | 1.17 ± 0.057 | 1.344 ± 0.065 | 6.312 ± 0.33 | 3.84 ± 0.2 | 2.513 ± 0.13 | 1.788 ± 0.089 | 1.512 ± 0.075
303.15 K | 1.05 ± 0.053 | 1.218 ± 0.059 | 5.448 ± 0.29 | 3.354 ± 0.15 | 2.232 ± 0.1 | 1.584 ± 0.079 | 1.35 ± 0.064
